In patent publication US8211890B2, “5-amino-2-(1-hydroxy-ethyl)-tetrahydropyran derivatives” (Actelion Pharmaceuticals, priority 2008, dated 2012):
In brackets after ≈: the same amount, converted by molar mass.

These compounds were tested on S. aureus A798 (assay: Bacterial growth minimal inhibitory concentrations (microdilution, cation-adjusted Mueller-Hinton Broth)). Conditions: Staphylococcus aureus, microdilution.
Format: cell-based
Procedure: Minimal inhibitory concentrations (MICs; mg/l) were determined in cation-adjusted Mueller-Hinton Broth by a microdilution method following the description given in “Methods for Dilution Antimicrobial Susceptibility Tests for Bacteria that Grow Aerobically”, Approved standard, 7th ed., Clinical and Laboratory Standards Institute (CLSI) Document M7-A7, Wayne, Pa., USA, 2006.

| Compound | MIC [µg/mL] |
| --- | --- |
| [2H]C(N[C@@H]1CC[C@@H]([C@@H](O)Cc2c(F)cnc3ccc(OC)nc23)OC1)c1cc2c(cn1)OCCO2 (stereo partly drawn) [Example 16, (1S)-1-((2S,5R)-5-(((2,3-dihydro-[1,4]dioxino[2,3-c]pyridin-7-yl)methyl-d1)amino)tetrahydro-2H-pyran-2-yl)-2-(3-fluoro-6-methoxy-1,5-naphthyridin-4-yl)ethanol] | ≤ 0.031 |
| COc1ccc2ccc(F)c(C[C@H](O)[C@@H]3CC[C@@H](NCc4cc5c(cn4)OCCS5)CO3)c2n1 [Example 7, (1S)-1-{(2S,5R)-5-[(2,3-dihydro-4-oxa-1-thia-6-aza-naphthalen-7-ylmethyl)-amino]-tetrahydro-pyran-2-yl}-2-(7-fluoro-2-methoxy-quinolin-8-yl)-ethanol] | ≤ 0.031 |
| COc1cnc2ccc(F)c(C[C@H](O)[C@@H]3CC[C@@H](NCc4cc5c(nn4)OCCO5)CO3)c2n1 [Example 13, (1S)-1-{(2S,5R)-5-[(6,7-dihydro-[1,4]dioxino[2,3-c]pyridazin-3-ylmethyl)-amino]tetrahydro-pyran-2-yl}-2-(6-fluoro-3-methoxy-quinoxalin-5-yl)-ethanol] | ≤ 0.031 |
| COc1ccc2ncc(F)c(C[C@H](O)[C@@H]3CC[C@@H](NCc4cc5c(nn4)OCCS5)CO3)c2n1 [Example 11, (1S)-1-{(2S,5R)-5-[(6,7-dihydro-8-oxa-5-thia-1,2-diaza-naphthalen-3-ylmethyl)-amino]-tetrahydro-pyran-2-yl}-2-(3-fluoro-6-methoxy-[1,5]naphthyridin-4-yl)-ethanol] | ≤ 0.031 |
| COc1cnc2ccc(F)c(C[C@H](O)[C@@H]3CC[C@@H](NCc4cc5c(cn4)OCCS5)CO3)c2n1 [Example 14, (1S)-1-{(2S,5R)-5-[(2,3-dihydro-4-oxa-1-thia-6-aza-naphthalen-7-ylmethyl)-amino]-tetrahydro-pyran-2-yl}-2-(6-fluoro-3-methoxy-quinoxalin-5-yl)-ethanol] | ≤ 0.031 |
| COc1cnc2ccc(F)c(C[C@H](O)[C@@H]3CC[C@@H](NCc4cc5c(nn4)OCCS5)CO3)c2n1 [Example 15, (1S)-1-{(2S,5R)-5-[(6,7-dihydro-8-oxa-5-thia-1,2-diaza-naphthalen-3-ylmethyl)-amino]-tetrahydro-pyran-2-yl}-2-(6-fluoro-3-methoxy-quinoxalin-5-yl)-ethanol] | ≤ 0.031 |
| [2H]C(N[C@@H]1CC[C@@H]([C@@H](O)Cc2c(F)cnc3ccc(OC)nc23)OC1)c1cc2c(cn1)OCCS2 (stereo partly drawn) [Example 19, (S)-1-((2S,5R)-5-(((2,3-dihydro-[1,4]oxathiino[2,3-c]pyridin-7-yl)methyl-d1)amino)tetrahydro-2H-pyran-2-yl)-2-(3-fluoro-6-methoxy-1,5-naphthyridin-4-yl)ethanol] | ≤ 0.031 |
| COc1cnc2ccc(F)c(C[C@H](O)[C@@H]3CC[C@@H](NCc4cc5c(cn4)OCCO5)CO3)c2n1 [Example 12, (1S)-1-{(2S,5R)-5-[(2,3-dihydro-[1,4]dioxino[2,3-c]pyridin-7-ylmethyl)-amino]-tetrahydro-pyran-2-yl}-2-(6-fluoro-3-methoxy-quinoxalin-5-yl)-ethanol] | ≤ 0.031 |
| COc1ccc2ncc(F)c(C[C@H](O)[C@@H]3CC[C@@H](NCc4cc5c(cn4)OCCC5)CO3)c2n1 [Example 10, (1S)-1-{(2S,5R)-5-[(3,4-dihydro-2H-pyrano[2,3-c]pyridin-6-ylmethyl)-amino]-tetrahydro-pyran-2-yl}-2-(3-fluoro-6-methoxy-[1,5]naphthyridin-4-yl)-ethanol] | ≤ 0.031 |
| COc1ccc2ncc(F)c(C[C@H](O)[C@@H]3CC[C@@H](NCc4cc5c(cn4)OCCS5)CO3)c2n1 [Example 6, (1S)-1-{(2S,5R)-5-[(2,3-dihydro-4-oxa-1-thia-6-aza-naphthalen-7-ylmethyl)-amino]-tetrahydro-pyran-2-yl}-2-(3-fluoro-6-methoxy-[1,5]naphthyridin-4-yl)-ethanol] | ≤ 0.031 |
| [2H][C@](O)(Cc1c(F)cnc2ccc(OC)nc12)[C@@H]1CC[C@@H](NCc2cc3c(cn2)OCCO3)CO1 (single isomer, unassigned) [Example 18] | ≤ 0.031 |
| [2H]C(N[C@@H]1CC[C@@H]([C@@H](O)Cc2c(F)cnc3ccc(OC)nc23)OC1)c1cc2c(nn1)OCCS2 (stereo partly drawn) [Example 23, (S)-1-{(2S,5R)-5-[(6,7-dihydro-8-oxa-5-thia-1,2-diaza-naphthalen-3-ylmethyl-d1)-amino]-tetrahydro-pyran-2-yl}-2-(3-fluoro-6-methoxy-[1,5]naphthyridin-4-yl)-ethanol] | ≤ 0.031 |
| COc1ccc2nccc(C[C@H](O)[C@@H]3CC[C@@H](NCc4cc5c(nn4)OCCO5)CO3)c2n1 [Example 2, (1S)-1-{(2S,5R)-5-[(6,7-dihydro-[1,4]dioxino[2,3-c]pyridazin-3-ylmethyl)-amino]-tetrahydro-pyran-2-yl}-2-(6-methoxy-[1,5]naphthyridin-4-yl)-ethanol] | 0.25 (≈ 0.551 µM) |
| COc1ccc2ccc(F)c(C[C@H](O)[C@@H]3CC[C@@H](NCc4cc5c(cn4)OCS5)CO3)c2n1 [Example 9, (1S)-2-(7-fluoro-2-methoxy-quinolin-8-yl)-1-{(2S,5R)-5-[(3-oxa-1-thia-5-aza-indan-6-ylmethyl)-amino]-tetrahydro-pyran-2-yl}-ethanol] | ≤ 0.031 |
| [2H]C([2H])(N[C@@H]1CC[C@@H]([C@@H](O)Cc2c(F)cnc3ccc(OC)nc23)OC1)c1cc2c(cn1)OCCO2 [Example 24, (1S)-1-((2S,5R)-5-(((2,3-dihydro-[1,4]dioxino [2,3-c]pyridin-7-yl)methyl-d2)amino)tetrahydro-2H-pyran-2-yl)-2-(3-fluoro-6-methoxy-1,5-naphthyridin-4-yl)ethanol] | ≤ 0.031 |
| [2H]C(c1c(F)cnc2ccc(OC)nc12)[C@H](O)[C@@H]1CC[C@@H](NCc2cc3c(cn2)OCCS3)CO1 (stereo partly drawn) [Example 21, (S)-1-((2S,5R)-5-(((2,3-dihydro-[1,4]oxathiino[2,3-c]pyridin-7-yl)methyl)amino)tetrahydro-2H-pyran-2-yl)-2-(3-fluoro-6-methoxy-1,5-naphthyridin-4-yl)ethanol-2-d1] | ≤ 0.031 |
| [2H]C(c1c(F)cnc2ccc(OC)nc12)[C@H](O)[C@@H]1CC[C@@H](NCc2cc3c(cn2)OCCO3)CO1 (stereo partly drawn) [Example 20, (1S)-1-((2S,5R)-5-(((2,3-dihydro-[1,4]dioxino-[2,3-c]pyridin-7-yl)methyl)amino)tetrahydro-2H-pyran-2-yl)-2-(3-fluoro-6-methoxy-1,5-naphthyridin-4-yl)ethanol-2-d1] | ≤ 0.031 |
| COc1ccc2ccc(F)c(C[C@H](O)[C@@H]3CC[C@@H](NCc4cc5c(cn4)OCCO5)CO3)c2n1 [Example 5, (1S)-1-{(2S,5R)-5-[(2,3-dihydro-[1,4]dioxino[2,3-c]pyridin-7-ylmethyl)-amino]-tetrahydro-pyran-2-yl}-2-(7-fluoro-2-methoxy-quinolin-8-yl)-ethanol] | ≤ 0.031 |

Same assay, conditions: microdilution

| Compound | MIC for S. aureus A798 |
| --- | --- |
| (S)-((1S,5R)-5-(((2,3-dihydro-[1,4]oxathiino[2,3-c]pyridin-7-yl)methyl)amino)tetrahydro-2H-pyran-2-yl)-2-(3-fluoro-6-methoxy-1,5-naphthyridin-4-yl)ethanol-1-d1 [Example 22] | ≦0.031 mg/l |
| (1S)-1-((2S,5R)-5-(((2,3-dihydro-[1,4]dioxino-2,2,3,3-d4-[2,3-c]pyridin-7-yl)methyl)amino)tetrahydro-2H-pyran-2-yl)-2-(3-fluoro-6-methoxy-1,5-naphthyridin-4-yl)ethanol [Example 17] | ≦0.031 mg/l |
